# Source: US9751854B2 (Millennium Pharmaceuticals, Inc., priority 2014, dated 2017)
# Molecular target: human VPS34 (Homo sapiens (Human), UniProt Q8NEB9)
# Test: Human VPS34 enzyme assay (Adapta TR-FRET ADP detection)
# Type: biochemical
# Details: IC50 range class
# Sequence of human VPS34 (Q8NEB9 whole entry): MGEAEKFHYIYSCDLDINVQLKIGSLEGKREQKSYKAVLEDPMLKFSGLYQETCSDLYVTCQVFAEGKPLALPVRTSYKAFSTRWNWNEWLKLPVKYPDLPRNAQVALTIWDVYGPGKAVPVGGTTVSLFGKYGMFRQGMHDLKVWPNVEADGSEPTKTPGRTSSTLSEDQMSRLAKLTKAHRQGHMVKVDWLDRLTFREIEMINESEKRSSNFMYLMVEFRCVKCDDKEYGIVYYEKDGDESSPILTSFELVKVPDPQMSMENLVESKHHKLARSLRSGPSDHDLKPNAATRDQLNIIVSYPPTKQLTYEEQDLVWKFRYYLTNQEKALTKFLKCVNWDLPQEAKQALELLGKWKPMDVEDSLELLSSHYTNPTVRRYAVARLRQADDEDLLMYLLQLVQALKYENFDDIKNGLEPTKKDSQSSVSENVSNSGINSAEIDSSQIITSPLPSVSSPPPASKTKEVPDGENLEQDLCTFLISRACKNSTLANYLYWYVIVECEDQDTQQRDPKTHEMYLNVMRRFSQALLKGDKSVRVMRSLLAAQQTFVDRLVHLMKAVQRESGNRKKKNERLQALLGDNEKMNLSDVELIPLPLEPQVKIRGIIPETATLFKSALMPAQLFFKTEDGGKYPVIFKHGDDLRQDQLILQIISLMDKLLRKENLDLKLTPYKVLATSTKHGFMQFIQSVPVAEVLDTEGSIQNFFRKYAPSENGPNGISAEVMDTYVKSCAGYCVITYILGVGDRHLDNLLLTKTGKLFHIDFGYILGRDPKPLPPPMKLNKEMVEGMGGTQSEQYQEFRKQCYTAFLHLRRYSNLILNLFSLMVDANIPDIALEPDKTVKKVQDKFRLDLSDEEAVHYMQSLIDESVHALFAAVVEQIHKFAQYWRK
row,SMILES,IC50 [nM]
1,"CCN(c1cc(-c2ccnc(NC(C)=O)c2)cnc1C)S(=O)(=O)C1CC1 [Compound I-26, N-{5-[(cyclopropylsulfonyl)(ethyl)amino]-6-methyl-3,4′-bipyridin-2′-yl}acetamide]",50 to 100
2,"N=C(N)NC(=O)c1cc(-c2ccnc(Nc3ccncn3)c2)cnc1N [Compound I-216, 6-Amino-N-carbamimidoyl-2′-(pyrimidin-4-ylamino)-3,4′-bipyridine-5-carboxamide]",50 to 100
3,"CC(=O)Nc1cc(-c2cncc(C(=O)C3CC3)c2)ccn1 [Compound I-8, N-[5-(cyclopropylcarbonyl)-3,4′-bipyridin-2′-yl]acetamide]",> 100
4,"CC(=O)Nc1cc(-c2cnc(C)c(N3CCCNC3=O)c2)ccn1 [Compound I-460, N-[6-methyl-5-(2-oxotetrahydropyrimidin-1(2H)-yl)-3,4′-bipyridin-2′-yl]acetamide]",> 100
5,"CC(=O)Nc1cc(-c2cnc(C#N)c(N3CCCCC3C)c2)ccn1 (stereo not drawn) [Compound I-380, N-[6-cyano-5-(2-methylpiperidin-1-yl)-3,4′-bipyridin-2′-yl]acetamide]",> 100
6,"CC(=O)Nc1cc(-c2cncc(/C=C/C(=O)c3ccc(F)cc3)c2)ccn1 [Compound I-188, N-{5-[(1E)-3-(4-fluorophenyl)-3-oxoprop-1-en-1-yl]-3,4′-bipyridin-2′-yl}acetamide]",50 to 100
7,"Cc1nccc(Nc2cc(-c3cnc(C)c(NC(=O)c4ccc(F)cc4F)c3)ccn2)n1 [Compound I-249, 2,4-difluoro-N-{6-methyl-2′-[(2-methylpyrimidin-4-yl)amino]-3,4′-bipyridin-5-yl}benzamide]",50 to 100
8,"Cc1nccc(Nc2cc(-c3cnc(Cl)c(S(=O)(=O)NC45CC(C4)C5)c3)ccn2)n1 [Compound I-242, N-(bicyclo[1.1.1]pent-1-yl)-6-chloro-2′-[(2-methylpyrimidin-4-yl)amino]-3,4′-bipyridine-5-sulfonamide]",10 to 50
9,"CC(=O)Nc1cc(-c2cnc3c(c2)CCN3)ccn1 [Compound I-67, N-[4-(2,3-dihydro-1H-pyrrolo[2,3-b]pyridin-5-yl)pyridin-2-yl]acetamide]",50 to 100
10,"CC(=O)Nc1cc(-c2cnc(C)c(N(C)S(=O)(=O)c3ccccc3)c2)ccn1 [Compound I-46, N-{6-methyl-5-[methyl(phenylsulfonyl)amino]-3,4′-bipyridin-2′-yl}acetamide]",10 to 50
11,"CC(=O)Nc1cc(-c2cc(NS(=O)(=O)c3ccc(F)cc3F)c3ccnn3c2)ccn1 [Compound I-404, N-[4-(4-{[(2,4-difluorophenyl)sulfonyl]amino}pyrazolo[1,5-a]pyridin-6-yl)pyridin-2-yl]acetamide]",10 to 50
12,"CC(=O)Nc1cc(-c2cnc(Cl)c(NS(=O)(=O)c3ccc(Cl)cc3F)c2C)ccn1 [Compound I-399, N-(6-chloro-5-{[(4-chloro-2-fluorophenyl)sulfonyl]amino}-4-methyl-3,4′-bipyridin-2′-yl)acetamide]",10 to 50
13,"COc1ncc(-c2ccnc(NC(C)=O)c2)cc1NS(=O)(=O)N(C)C [Compound I-220, N-{5-[(dimethylsulfamoyl)amino]-6-methoxy-3,4′-bipyridin-2′-yl}acetamide]",10 to 50
14,"CC(=O)Nc1cc(-c2cnc(C)c(NS(=O)(=O)c3ccc(F)cc3F)c2)c(C)cn1 [Compound I-177, N-(5-{[(2,4-difluorophenyl)sulfonyl]amino}-5′,6-dimethyl-3,4′-bipyridin-2′-yl)acetamide]",10 to 50
15,"CC(=O)Nc1cc(-c2cnc(NCC3CC3)c(NCC3CC3)c2)ccn1 [Compound I-65, N-{5,6-bis[(cyclopropylmethyl)amino]-3,4′-bipyridin-2′-yl}acetamide]",> 100
16,"CC(=O)Nc1cc(-c2cnc(N)c(C(=O)N3CC[C@@H](F)C3)c2)ccn1 [Compound I-157, N-[6-amino-5-{[(3R)-3-fluoropyrrolidin-1-yl]carbonyl}-3,4′-bipyridin-2′-yl)acetamide]",10 to 50
17,"CC(=O)Nc1cc(-c2cncc(N(CCO)S(=O)(=O)c3ccc(F)cc3F)c2)ccn1 [Compound I-384, N-(5-{[(2,4-difluorophenyl)sulfonyl](2-hydroxyethyl)amino}-3,4′-bipyridin-2′-yl)acetamide]",> 100
18,"CC(=O)Nc1cc(-c2cnc3c(c2)S(=O)(=O)N[C@@H](c2ccccc2)CO3)ccn1 [Compound I-334, (S)-N-[4-(1,1-dioxido-3-phenyl-3,4-dihydro-2H-pyrido[2,3-b][1,4,5]oxathiazepin-8-yl)pyridin-2-yl]acetamide]",> 100
19,"CC(=O)Nc1cc(-c2cnc(Cl)c(N3CCCS3(=O)=O)c2C)ccn1 [Compound I-425, N-[6-chloro-5-(1,1-dioxidoisothiazolidin-2-yl)-4-methyl-3,4′-bipyridin-2′-yl]acetamide]",10 to 50
20,"Cc1nccc(Nc2cc(-c3cncc(C(C)Oc4ccccc4F)c3)ccn2)n1 (stereo not drawn) [Compound I-422, 5-[1-(2-fluorophenoxy)ethyl]-N-(2-methylpyrimidin-4-yl)-3,4′-bipyridin-2′-amine]",10 to 50
21,"Cc1nccc(Nc2cc(-c3cnc(Cl)c(N(C)C)c3C)ccn2)n1 [Compound I-314, 6-chloro-N5,N5,4-trimethyl-N2′-(2-methylpyrimidin-4-yl)-3,4′-bipyridine-2′,5-diamine]",10 to 50
22,"CC(=O)Nc1cc(-c2cnc(C)c(NS(=O)(=O)c3ccc(F)cc3F)c2C)ccn1 [Compound I-247, N-(5-{[(2,4-difluorophenyl)sulfonyl]amino}-4,6-dimethyl-3,4′-bipyridin-2′-yl)acetamide]",10 to 50
23,"CC(=O)Nc1cc(-c2cnc(C)c(C(=O)Nc3ccc(F)cc3F)c2)ccn1 [Compound I-431, 2′-acetamido-N-(2,4-difluorophenyl)-6-methyl-3,4′-bipyridine-5-carboxamide]",> 100
24,"Cc1ncc(-c2ccnc(Nc3ccnc(C4CC4)n3)c2)cc1C(=O)N1CCC1 [Compound I-246, azetidin-1-yl{2′-[(2-cyclopropylpyrimidin-4-yl)amino]-6-methyl-3,4′-bipyridin-5-yl}methanone]",10 to 50

# Further lines, results first:
row,IC50 [nM],SMILES
1,10 to 50,"CCOc1cc(-c2ccnc(Nc3ccnc(C)n3)c2)cnc1C [Compound I-479, 5-ethoxy-6-methyl-N-(2-methylpyrimidin-4-yl)-3,4′-bipyridin-2′-amine]"
2,< 10,"CC(=O)Nc1cc(-c2cc(OS(=O)(=O)N(C)C)c3ccnn3c2)ccn1 [Compound I-428, 6-(2-acetamidopyridin-4-yl)pyrazolo[1,5-a]pyridin-4-yl dimethylsulfamate]"
3,< 10,"CC(=O)Nc1cc(-c2cnc(N)c(C(=O)N3CCC(C)CC3)c2)ccn1 [Compound I-81, N-{6-amino-5-[[4-methylpiperidin-1-yl)carbonyl]-3,4′-bipyridin-2′-yl}acetamide]"
4,10 to 50,"COc1nccc(Nc2cc(-c3cncc(C(=O)N(C)C45CC(C4)C5)c3)ccn2)n1 [Compound I-245, N-(bicyclo[1.1.1]pent-1-yl)-2′-[(2-methoxypyrimidin-4-yl)amino]-N-methyl-3,4′-bipyridine-5-carboxamide]"
5,10 to 50,"CC(=O)Nc1cc(-c2cnc(N)c(S(C)(=O)=O)c2)ccn1 [Compound I-95, N-[6-amino-5-(methylsulfonyl)-3,4′-bipyridin-2′-yl]acetamide]"
6,10 to 50,"CN(C)c1ncc(-c2ccnc(Nc3ccncn3)c2)cc1C(=O)N(C)C12CC(C1)C2 [Compound I-284, N-(bicyclo[1.1.1]pent-1-yl)-6-(dimethylamino)-N-methyl-2′-(pyrimidin-4-ylamino]-3,4′-bipyridine-5-carboxamide]"
7,10 to 50,"CC(=O)Nc1cc(-c2cnc(C)c(N(C)S(C)(=O)=O)c2)ccn1 [Compound I-96, N-{6-methyl-5-[methyl(methylsulfonyl)amino]-3,4′-bipyridin-2′-yl}acetamide]"
8,< 10,"Cc1ncc(-c2ccnc(NC(=O)C3CC3)c2)cc1NS(=O)(=O)N(C)C [Compound I-311, N-{5-[(dimethylsulfamoyl)amino]-6-methyl-3,4′-bipyridin-2′-yl)cyclopropanecarboxamide]"
9,10 to 50,"CC(=O)Nc1cc(-c2cncc(NS(=O)(=O)c3ccc(F)cc3F)c2C)ccn1 [Compound I-102, N-(5-{[(2,4-difluorophenyl)sulfonyl]amino]-4-methyl-3,4′-bipyridin-2′-yl)acetamide]"
10,10 to 50,"Cc1ncc(-c2ccnc(Nc3ccccn3)c2)cc1NS(=O)(=O)c1ccc(F)cc1F [Compound I-297, 2,4-difluoro-N-[6-methyl-2′-(pyridin-2-ylamino)-3,4′-bipyridin-5-yl]benzenesulfonamide]"
11,< 10,CC(=O)Nc1cc(-c2cnc(N)c(S(=O)(=O)Nc3ccccc3)c2)ccn1 [Compound I-43]
12,< 10,"COc1ncc(-c2ccnc(NC(C)=O)c2)cc1NS(=O)(=O)c1ccc(F)cc1F [Compound I-104, N-(5-{[(2,4-difluorophenyl)sulfonyl]amino}-6-methoxy-3,4′-bipyridin-2′-yl)acetamide]"
13,< 10,"CNc1ncc(-c2ccnc(NC(C)=O)c2)cc1N1CCCS1(=O)=O [Compound I-132, N-[5-(1,1-dioxidoisothiazolidin-2-yl)-6-(methylamino)-3,4′-bipyridin-2′-yl]acetamide]"
14,< 10,"COC(=O)Nc1cc(-c2cnc(C)c(NS(=O)(=O)c3ccc(F)cc3F)c2)ccn1 [Compound I-195, methyl (5-{[(2,4-difluorophenyl)sulfonyl]amino}-6-methyl-3,4′-bipyridin-2′-yl)carbamate]"
15,< 10,"CC(=O)Nc1cc(-c2cnc(C)c(NS(=O)(=O)C3CCCCC3)c2)ccn1 [Compound I-72, N-{5-[(cyclohexylsulfonyl)amino]-6-methyl-3,4′-bipyridin-2′-yl]acetamide]"
16,< 10,"COc1ccc(S(=O)(=O)Nc2cc(-c3ccnc(NC(C)=O)c3)cnc2C)c(F)c1 [Compound I-163, N-(5-{[(2-fluoro-4-methoxyphenyl)sulfonyl]amino}-6-methyl-3,4′-bipyridin-2′-yl)acetamide]"
17,< 10,"CC(=O)Nc1cc(-c2cnc(C)c(NS(=O)(=O)c3ccsc3)c2)ccn1 [Compound I-203, N-{6-methyl-5-[(3-thienylsulfonyl)amino]-3,4′-bipyridin-2′-yl}acetamide]"
18,< 10,CC(=O)Nc1cc(-c2cnc(C)c(NS(=O)(=O)c3ccc(C(F)(F)F)nc3)c2)ccn1 [Compound I-1]
